A word on the IC50: it is the concentration that gives 50% inhibition.

Experimental findings from PMC12423892 (ACS Omega, 2025) are described below.

One experiment has as its system HCT-116. The experiment is described as follows: In vitro antiproliferative MTT assay, HCT-116. The settings on record: Homo sapiens, HCT-116, read-out: IC50 HCT-116. The experiment is classed as cell-based. A general note: Formazan colour is commonly taken as a measure of viable cells.
The next experiment concerns HepG-2. In words: In vitro antiproliferative MTT assay, HepG-2. The experiment is classed as cell-based. As to conditions: Homo sapiens, HepG2, read-out: IC50 HepG-2.
Another experiment has as its system MCF-7. In words: In vitro antiproliferative MTT assay, MCF-7. The experiment is classed as cell-based. The settings on record: Homo sapiens, MCF7, read-out: IC50 MCF-7.
Experiment [1] has as its system HepG2 cells. The experiment is described as follows: Apoptosis analysis, Annexin V/PI, HepG2. As to conditions: at IC50, 72 h, single measurement. The experiment is classed as cell-based, human.
Experiment [2] deals with HepG2 cells. The experiment is described as follows: Cell cycle analysis, flow cytometry, HepG2. The experiment is classed as cell-based, human. The settings on record: treated at IC50 (3a 4.82, 6 3.33, 15 3.31 μM), 72 h, single measurement. In general terms: Flow cytometry measures light scatter and fluorescence of single cells or particles in a stream.
In the next experiment the test system is WI-38. In words: Cytotoxicity against normal WI-38 cells. In kind it is cell-based. The settings on record: Homo sapiens, WI-38, read-out: IC50 WI-38.

As for `CCN(CC)C(=S)N/N=C(\C)c1ccc(S(=O)(=O)N2CCC(C)CC2)cc1` [Compound 5, (E)-N,N-Diethyl-2-(1-(4-((4-methylpiperidin-1-yl)sulfonyl)phenyl)ethylidene)hydrazine-1-carbothioamide], the values for the IC50 in the experiment with HCT-116, with HepG-2 and in the experiment with MCF-7 were 15.1 ± 0.75 µM, 10.7 ± 0.63 µM and 18.4 ± 0.85 µM, respectively.
For `C/C(=N\N)c1ccc(S(=O)(=O)N2CCC(C)CC2)cc1` [Compound 12, (E)-1-((4-(1-hydrazineylideneethyl)phenyl)sulfonyl)-4-methylpiperidine], the IC50 is 87.3 ± 6.2 µM with HCT-116, 59.6 ± 3.3 µM with HepG-2 and 96.1 ± 5.23 µM with MCF-7.
Turning to `COc1cccc2c1C(=O)c1c(O)c3c(c(O)c1C2=O)C[C@@](O)(C(=O)CO)C[C@@H]3O[C@H]1C[C@H](N)[C@H](O)[C@H](C)O1` [doxorubicin], in the experiment on HCT-116, the concentration for half-maximal inhibition (IC50) was 6.74 ± 0.4 µM. In the experiment with HepG-2, the IC50 came out at 7.52 ± 0.31 µM. Further, in the experiment on HepG2 cells [1], the apoptosis early came out at 7.43%, the apoptosis late stood at 21.13%, the apoptosis total is 31.28% and the necrosis turned out to be 2.72%. In the experiment on HepG2 cells [2], the “%G0-G1” value stood at 48.26%, the “%G2/M” value is 21.46%, the “%Pre-G1” value is reported as 31.28% and the “%S” value came to 30.28%. The IC50 with MCF-7 turned out to be 8.19 ± 0.62 µM.
Regarding `CNC(=O)c1cc(Oc2ccc(NC(=O)Nc3ccc(Cl)c(C(F)(F)F)c3)cc2)ccn1` [sorafenib], the IC50 in the experiment on HCT-116 came out at 9.3 ± 0.2 µM; with WI-38, 35.71 ± 0.013 µM; with HepG-2, 7.4 ± 0.25 µM; in the experiment with MCF-7, 6.72 ± 0.16 µM.
For the compound `CC[C@]1(O)C[C@@H]2CN(CCc3c([nH]c4ccccc34)[C@@](C(=O)OC)(c3cc4c(cc3OC)N(C)[C@H]3[C@@](O)(C(=O)OC)[C@H](OC(C)=O)[C@]5(CC)C=CCN6CC[C@]43[C@@H]65)C2)C1` [vinblastine], the IC50 with HCT-116 was 3.21 ± 0.21 µM; in the experiment on HepG-2, 7.35 ± 0.52 µM; in the experiment on MCF-7, 5.83 ± 0.61 µM.
